Measurements as given in patent US8263636B2, “Dual alanyl aminopeptidase and dipeptidyl peptidase iv inhibitors for functionally influencing different cells and for treating immunological inflammatory, neuronal and other diseases” (IMTM GmbH, priority 2003, dated 2012).
Read-outs that look alike come from different tables or passages of the source.

Columns and labels:
[1] = molecular target: alanyl aminopeptidase (APN) (Homo sapiens, UniProt P15144); assay: Inhibition of alanyl aminopeptidase enzymatic activity, fluorogenic substrate (Ala)2-rhodamine; type: biochemical
Chain of alanyl aminopeptidase (APN) (P15144 whole entry, species assumed): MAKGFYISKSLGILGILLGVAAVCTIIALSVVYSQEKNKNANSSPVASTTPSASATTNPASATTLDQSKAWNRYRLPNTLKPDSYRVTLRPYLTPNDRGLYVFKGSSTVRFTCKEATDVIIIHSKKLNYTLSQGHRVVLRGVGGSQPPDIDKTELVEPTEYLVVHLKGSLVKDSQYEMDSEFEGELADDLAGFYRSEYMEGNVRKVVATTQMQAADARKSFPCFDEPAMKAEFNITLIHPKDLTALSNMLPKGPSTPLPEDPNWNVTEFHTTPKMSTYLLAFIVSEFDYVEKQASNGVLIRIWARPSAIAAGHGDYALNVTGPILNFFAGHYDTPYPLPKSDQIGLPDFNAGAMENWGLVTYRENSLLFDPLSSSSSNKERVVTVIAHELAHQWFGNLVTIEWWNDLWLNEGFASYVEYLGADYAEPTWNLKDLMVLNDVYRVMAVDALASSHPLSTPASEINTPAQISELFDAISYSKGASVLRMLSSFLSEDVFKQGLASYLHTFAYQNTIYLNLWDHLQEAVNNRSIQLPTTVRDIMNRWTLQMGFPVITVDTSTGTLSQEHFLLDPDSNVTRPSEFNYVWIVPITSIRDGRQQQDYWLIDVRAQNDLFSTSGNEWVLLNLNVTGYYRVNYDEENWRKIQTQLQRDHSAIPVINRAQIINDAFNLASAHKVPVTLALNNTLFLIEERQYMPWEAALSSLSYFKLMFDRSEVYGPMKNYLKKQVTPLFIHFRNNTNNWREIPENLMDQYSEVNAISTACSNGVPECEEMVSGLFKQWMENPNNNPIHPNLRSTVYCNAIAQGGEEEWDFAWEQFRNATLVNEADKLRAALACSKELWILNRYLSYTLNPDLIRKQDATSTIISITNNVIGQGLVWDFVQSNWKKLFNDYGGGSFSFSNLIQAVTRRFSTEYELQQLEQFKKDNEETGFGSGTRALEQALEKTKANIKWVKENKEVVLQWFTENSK
Description: (§1) The inhibition characteristics measured are referred to as IC-50 values or ID50 values (the lafter marked with “*”) for both enzymes. The enzymatic activity was determined by means of the fluorogenic substrates/products (Ala-Pro)2-rhodamine and (Ala)2-rhodamine.

[2] = molecular target: dipeptidyl peptidase IV (DPIV) (Homo sapiens, UniProt P27487); assay: Inhibition of dipeptidyl peptidase IV enzymatic activity, fluorogenic substrate (Ala-Pro)2-rhodamine; type: biochemical
Chain of dipeptidyl peptidase IV (DPIV) (P27487 whole entry, species assumed): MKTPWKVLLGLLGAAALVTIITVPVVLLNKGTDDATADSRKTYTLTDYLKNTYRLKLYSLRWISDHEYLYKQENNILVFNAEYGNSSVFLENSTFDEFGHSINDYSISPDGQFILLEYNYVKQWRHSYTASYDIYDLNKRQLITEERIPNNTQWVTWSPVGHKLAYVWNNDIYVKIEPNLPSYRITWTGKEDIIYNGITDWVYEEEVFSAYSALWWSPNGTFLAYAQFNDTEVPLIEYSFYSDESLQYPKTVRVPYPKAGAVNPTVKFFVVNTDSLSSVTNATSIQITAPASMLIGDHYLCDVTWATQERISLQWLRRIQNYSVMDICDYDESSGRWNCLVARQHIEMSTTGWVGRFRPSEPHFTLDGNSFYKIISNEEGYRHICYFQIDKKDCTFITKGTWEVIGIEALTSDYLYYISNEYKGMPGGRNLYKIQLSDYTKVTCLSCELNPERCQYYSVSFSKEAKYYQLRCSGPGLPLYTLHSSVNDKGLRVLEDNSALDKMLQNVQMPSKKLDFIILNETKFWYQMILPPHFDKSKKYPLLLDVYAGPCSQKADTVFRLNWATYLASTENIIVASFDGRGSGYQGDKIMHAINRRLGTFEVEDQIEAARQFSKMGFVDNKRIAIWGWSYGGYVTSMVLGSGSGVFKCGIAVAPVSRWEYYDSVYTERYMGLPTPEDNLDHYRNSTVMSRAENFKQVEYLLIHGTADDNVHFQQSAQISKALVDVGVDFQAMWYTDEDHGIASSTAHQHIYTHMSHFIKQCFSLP
Description: as §1

[3] = system: dextran sulfate-induced colitis; assay: Dextran sulfate-induced colitis of mice; type: in vivo, female Balb/c mice; settings: 10 μg single inhibitor i.p. on three successive days from day 5; day 7; insignificant; FIG. 2
[4] = system: ovalbumine-induced asthma bronchiale; assay: Ovalbumine-induced asthma bronchiale of mice; type: in vivo, female Balb/c mice; settings: i.p. 0.1 mg of each inhibitor, days 28-35; ovalbumine challenge day 35; FIG. 3A
Description: Female Balb/c mice were sensitized for the antigen ovalbumine capable of inducing asthma bronchiale by an intreperitoneal administration of 10 μg ovalbumine on the days 0, 14 and 21. On day 27/28, the animals received a boostering dose of ovalbumine by inhalation [vD3]. After an intreperitoneal administration of the peptidase inhibitors on the days 28-35, there was effected an intranasal ovalbumine challenge on day 35, as well as a check of the allergic premature reaction via the pulmonal function. There were measured: the average expiratory flux (EF50), the tidal volume, the respiration rate and the minute volume as well as the number of eosinophilic granulocytes in the bronchoalveolar lavage. 8 to 10 animals were used per experimental group. By way of example, in FIG. 3A, there is summarized the effect of the peptidase inhibitors on the reduction of the EF50 value.

[5] = second value of cell DPIV/APN, marked * = ID50 value, read-out: ID50 APN (marked with *)
[6] = first value of cell DPIV/APN, unmarked = IC-50, read-out: IC50 DPIV
[7] = second value of cell DPIV/APN, unmarked = IC-50, read-out: IC50 APN
[8] = Table 8, first value of cell, unmarked = IC-50, read-out: IC50 DPIV

| SMILES | IC50 [2, 6] [µM] | IC50 [1, 7] [µM] | other results |
| --- | --- | --- | --- |
| COc1cc(Br)c(OCC(=O)N/N=C/c2cc(Br)c(O)c(O)c2Br)c(Br)c1 [Compound C2.003] | – | – | IC50 [1, 5]: 5.4 µM |
| COc1ccc(OCC(=O)N/N=C/c2cc(Br)c(O)c(O)c2Br)c(Br)c1 [Compound C2.005] | 40.8 | – | – |
| Cc1ccc(C)n1-c1cccc(C(=O)N/N=C/c2cc(Br)c(O)c(Br)c2)c1 [Compound C2.007] | – | – | IC50 ([2]; read-out: IC50 DPIV): 41.1 µM |
| Cc1ccc(/C=N/NC(=O)c2cccc(I)c2)o1 [Compound C2.010] | – | – | IC50 ([2]; read-out: IC50 DPIV): 57.4 µM |
| COc1ccc(C(=O)N/N=C/c2cc(O)c(O)c(Br)c2Br)cc1 [Compound C2.012] | – | – | IC50 [1, 5]: 33.6 µM |
| COc1ccc(C(=O)N/N=C\c2cc(Br)c(O)c(O)c2Br)cc1 [Compound C2.013] | – | – | IC50 ([2]; first value of cell DPIV/APN, marked * = ID50 value, read-out: ID50 DPIV (marked with *)): 94 µM |
| O=C(N/N=C/c1cc(Br)cc(Br)c1OC(=O)c1ccccc1)/C(=C/c1ccc2c(c1)OCO2)NC(=O)c1ccccc1 [Compound C4.006] | 38.6 | – | – |
| Cc1[nH]c2ccccc2c1C(c1ccccn1)N1CCN(c2ccccn2)CC1 (centres unmarked) [Compound C4.008] | 45 | 28 | – |
| Cc1[nH]c2ccccc2c1C(c1ccccn1)N1CCN(c2ccc(F)cc2)CC1 (centres unmarked) [Compound C4.009] | 96 | 76 | – |
| Cc1[nH]c2ccccc2c1C(c1ccccn1)N1CCCC1 (centres unmarked) [Compound C4.011] | 170 | – | – |
| Cc1[nH]c2ccccc2c1C(c1ccccn1)N1CCOCC1 (centres unmarked) [Compound C4.012] | 59 | 36 | – |
| Cc1[nH]c2ccccc2c1C(c1ccccn1)N1CCCCC1 (centres unmarked) [Compound C4.013] | 74 | 78 | – |
| Cc1[nH]c2ccccc2c1C(c1cccs1)N1CCCCC1 (centres unmarked) [Compound C4.017] | 67 | 31 | – |
| Cc1[nH]c2ccccc2c1C(c1cccs1)N1CCOCC1 (centres unmarked) [Compound C4.018] | 61 | 32 | – |
| Cc1[nH]c2ccccc2c1C(c1cccs1)N1CCCC1 (centres unmarked) [Compound C4.019] | 57 | 35 | – |
| CCOC(=O)C(NC(=O)c1ccccc1)(N1CCOCC1)C(F)(F)F (centres unmarked) [Compound C7.004] | – | – | IC50 [1, 5]: 186 µM |
| CN(C)CCNc1nc2c(c(=O)n(C)c(=O)n2C)n1Cc1ccccc1Cl [Compound C8.002] | – | – | IC50 APN ([1]; Table 8, second value of cell, unmarked = IC-50): 7.5/Inactive |
| COC(=O)C1=C(N)N2C(=O)CSC2=C(C(=O)OC(C)C)C1 [Compound C8.003] | – | – | IC50 [2, 8]: 10.8 µM |
| C=CCN1C(=O)C(C#N)=C(C)/C(=C\c2ccc(-c3cc(C)c(C)cc3[N+](=O)[O-])o2)C1=O [Compound C8.012] | – | – | IC50 [2, 8]: 65.4 µM |
| CCOC(=O)C(NC(=O)c1ccc(OC)cc1)(N1CCOCC1)C(F)(F)F (centres unmarked) [Compound C8.017] | – | – | IC50 ([1]; Table 8, second value of cell, unmarked = IC-50, read-out: IC50 APN): 90.2 µM |
| O=C(N/C(=C\c1ccco1)C(=O)N1CCCC(CO)C1)c1ccccc1 (centres unmarked) [Compound C8.020] | – | – | IC50 ([2]; Table 8, first value of cell, marked * = ID50 value, read-out: ID50 DPIV (marked with *)): 152 µM |
| COc1cc(C)[n+](OC(=O)N(C)C)c(C)c1 [Compound C8.021] | – | – | IC50 [2]: 119 µM |
| O=C(N/C(=C\c1ccco1)C(=O)N1CCCC(CO)C1)c1ccccc1 (centres unmarked) [Compound C9.006] | 152 | – | – |
| COc1ccc(N2C(=O)c3ccc(Oc4ccc(N5C(=O)c6ccc(C(=O)O)cc6C5=O)cc4)cc3C2=O)cc1 [Compound C12.001] | 20.6 | 14.8 | – |
| N[C@@H](CCCCNC(=O)OCc1ccc([N+](=O)[O-])cc1)C(=O)N1CCCC1 [Lys[Z(NO2)] pyrrolidide] | – | – | reduction of the heaviness of the disease (score) [3]: −12.3%; effect on the reduction of the average expiratory flux (EF50) [4]: showed a therapeutic effect |
| CCCCC[C@H](CC(=O)NO)C(=O)N[C@H](C(=O)N1CCC[C@H]1CO)C(C)C [actinonine] | – | – | reduction of the heaviness of the disease (score) [3]: −16.5%; effect on the reduction of the average expiratory flux (EF50) [4]: showed a therapeutic effect |

The next lines start with results.

| IC50 [2, 6] [µM] | IC50 [1, 7] [µM] | SMILES | other results |
| --- | --- | --- | --- |
| – | 11.8 | Cc1[nH]c2ccccc2c1C(c1cc(Cl)ccc1O)N1CCOCC1 (centres unmarked) [Compound C4.002] | – |
| 32 | 32 | CCOC(=O)C1CCN(C(c2ccccn2)c2c(C)[nH]c3ccccc23)CC1 (centres unmarked) [Compound C4.007] | – |
| 54 | 42 | Cc1[nH]c2ccccc2c1C(c1ccccn1)N1CCC(C(N)=O)CC1 (centres unmarked) [Compound C4.010] | – |
| 61 | 48 | Cc1[nH]c2ccccc2c1C(c1cccs1)N1CCC(C(N)=O)CC1 (centres unmarked) [Compound C4.014] | – |
| 49 | 25 | CCOC(=O)N1CCN(C(c2cccs2)c2c(C)[nH]c3ccccc23)CC1 (centres unmarked) [Compound C4.015] | – |
| 49 | 30 | COc1ccc(C(c2c(C)[nH]c3ccccc23)N2CCCC2)cc1 (centres unmarked) [Compound C4.016] | – |
| 18.9 | 21.7 | CCOC(=O)C(NC(=O)c1cccc(Cl)c1)(Nc1ccccc1OC)C(F)(F)F (centres unmarked) [Compound C7.001] | – |
| 25.4 | – | CCOC(=O)C(NC(=O)c1ccc(OC)cc1)(N1CCCC1=O)C(F)(F)F (centres unmarked) [Compound C7.002] | – |
| – | 90.2 | CCOC(=O)C(NC(=O)c1ccc(OC)cc1)(N1CCOCC1)C(F)(F)F (centres unmarked) [Compound C7.003] | – |
| 10.8 | – | COC(=O)C1=C(N)N2C(=O)CSC2=C(C(=O)OC(C)C)C1 [Compound C10.003] | – |
| 99.4 | 26.7 | COc1ccccc1N1C(=O)c2ccc(Oc3ccc(NC(=O)CCS(=O)(=O)c4ccc(C)cc4)cc3)cc2C1=O [Compound C10.015] | – |
| 10.8 | 6.9 | COC(=O)C1=C(N)N2C(=O)CSC2=C(C(=O)OC(C)C)C1 [Compound C16.001] | – |
| 79 | 75 | CC(C)OC(=O)C1=C(N)N2C(=O)CSC2=C(C(=O)OC(C)C)C1 [Compound C16.007] | – |
| 139 | – | CCOC(=O)C1=c2s/c(=C\c3cccs3)c(=O)n2C(N)=C(S(=O)(=O)c2ccccc2)C1c1cccs1 (centres unmarked) [Compound C16.008] | – |
| 140 | – | COC(=O)C1=c2s/c(=C\c3cccc(OC)c3)c(=O)n2C(N)=C(S(=O)(=O)c2ccccc2)C1c1cccc(OC)c1 (centres unmarked) [Compound C16.009] | – |
| – | 100 | COC(=O)C1=c2s/c(=C\c3ccco3)c(=O)n2C(N)=C(S(=O)(=O)c2ccccc2)C1c1ccco1 (centres unmarked) [Compound C16.010] | – |
| 115 | – | COC(=O)C1=c2s/c(=C\c3ccc(C)cc3)c(=O)n2C(N)=C(S(=O)(=O)c2ccccc2)C1c1ccc(C)cc1 (centres unmarked) [Compound C16.011] | – |
